According to ChEMBL document CHEMBL4229535, “Design, synthesis and evaluation of oxime-functionalized nitrofuranylamides as novel antitubercular agents” (2018):
≈ marks a conversion by molar mass, not a printed value.

Legend:
Format in all cases: functional
[1] = system: Mycobacterium tuberculosis; assay: Antimycobacterial activity against multidrug-resistant Mycobacterium tuberculosis isolate 16833 after 7 days by microplate alamar blue assay; settings: isolate 16833, 168 h
[2] = system: Mycobacterium tuberculosis; assay: Antimycobacterial activity against multidrug-resistant Mycobacterium tuberculosis isolate 16995 after 7 days by microplate alamar blue assay; settings: isolate 16995, 168 h
[3] = Resistance index, ratio of MIC>90 for multidrug-resistant Mycobacterium tuberculosis clinical isolate 16833 to MIC>90 for Mycobacterium tuberculosis H37Rv ATCC 27294
[4] = Resistance index, ratio of MIC>90 for multidrug-resistant Mycobacterium tuberculosis clinical isolate 16995 to MIC>90 for Mycobacterium tuberculosis H37Rv ATCC 27294

Row | SMILES | MIC90 [1] [mg/L] | MIC90 [2] [mg/L] | Ratio [3] | Ratio [4]
1 | CO/N=C1\CCN(C(=O)c2ccc([N+](=O)[O-])o2)C1 | 1.93 (≈ 7.61 µM) | 1.91 (≈ 7.54 µM) | 1 | 1
2 | NNC(=O)c1ccncc1 [ISONIAZID] | > 40 | > 40 |  | 
3 | O=C(c1ccc([N+](=O)[O-])o1)N1CCC(=NOCc2ccccc2)CC1 | 0.482 (≈ 1.4 µM) | 0.426 (≈ 1.24 µM) | 1 | 1
4 | O=C(c1ccc([N+](=O)[O-])o1)N1CC/C(=N\OCc2ccccc2)C1 | 0.207 (≈ 0.629 µM) | 0.38 (≈ 1.15 µM) | 1 | 1
5 | O=C(c1ccc([N+](=O)[O-])o1)N1CCc2ccccc21 | > 4 | > 4 |  | 
6 | CON=C1CCN(C(=O)c2ccc([N+](=O)[O-])o2)CC1 | 1.91 (≈ 7.16 µM) | 1.94 (≈ 7.24 µM) | 1 | 1
7 | CO[C@H]1/C=C/O[C@@]2(C)Oc3c(C)c(O)c4c(O)c(c(/C=N/N5CCN(C)CC5)c(O)c4c3C2=O)NC(=O)/C(C)=C\C=C\[C@H](C)[C@H](O)[C@@H](C)[C@@H](O)[C@@H](C)[C@H](OC(C)=O)[C@@H]1C [RIFAMPIN] | > 40 | > 40 |  | 
